What was measured:
[1] = test system: TRPC5; details: ag. = agonistic effect; read-out: EC50 [nM] simple agonism, TRPC5; cited from earlier work
[2] = target: T1, heteromeric TRPC5:TRPC1 (Homo sapiens, UniProt Q9UL62); set-up: method as in earlier work; details: supplement cites it as ref 8; cited from earlier work
T1 construct: expressed in transfected cells; host or cells: HEK293, transiently transfected

[3] = Stability in DTT-containing buffers (HPLC analysis); type: physicochemical; details: confirmed by HPLC analysis
Text: Müller, Niemeyer, et al., Schaefer & Thorn-Seshold 2025: Ideal Efficacy Photoswitching of TRPC4/5 in Tissue 1.4 Supplementary Note 4: Structural Biology and TRP Selectivity
We prepared and acquired TRPC5:E/Z-AzHC samples in one lab, and TRPC4:E/Z-AzPico independently in another, which was useful for several plausibility checks. (1) There are additional lipid densities in the pockets that are present in both TRPC4 and TRPC5, and the changes to the lipid densities in the EM maps between E and Z isomers are similar in TRPC4 and TRPC5 as well: so these changes are not dependent on protein, nature of amphipol used, or lab in which the data were obtained/processed, but are rather inherent features of the system. (2) The positions of the distal rings which are much less-well-resolved than the rest of the ligand, were independently best aligned for the E and Z isomers, and in each case found to be Z-buried vs. E-projected, which gives more confidence in this structure-based analysis. (3) Identical deleterious effects of DTT were found in each lab, and removing it removed those problems.
1.4.1 Detailed Commentary: hTRPC5:E/Z-AzHC […]
We determined high-resolution structures of hTRPC5:(E)-AzHC (2.60 Å) and hTRPC5:(Z)-AzHC (2.90 Å) without applying symmetry (Fig. 3; Supplementary Fig. 4-5 and 15-18; Supplementary […]

T1 sequence (Q9UL62 whole entry): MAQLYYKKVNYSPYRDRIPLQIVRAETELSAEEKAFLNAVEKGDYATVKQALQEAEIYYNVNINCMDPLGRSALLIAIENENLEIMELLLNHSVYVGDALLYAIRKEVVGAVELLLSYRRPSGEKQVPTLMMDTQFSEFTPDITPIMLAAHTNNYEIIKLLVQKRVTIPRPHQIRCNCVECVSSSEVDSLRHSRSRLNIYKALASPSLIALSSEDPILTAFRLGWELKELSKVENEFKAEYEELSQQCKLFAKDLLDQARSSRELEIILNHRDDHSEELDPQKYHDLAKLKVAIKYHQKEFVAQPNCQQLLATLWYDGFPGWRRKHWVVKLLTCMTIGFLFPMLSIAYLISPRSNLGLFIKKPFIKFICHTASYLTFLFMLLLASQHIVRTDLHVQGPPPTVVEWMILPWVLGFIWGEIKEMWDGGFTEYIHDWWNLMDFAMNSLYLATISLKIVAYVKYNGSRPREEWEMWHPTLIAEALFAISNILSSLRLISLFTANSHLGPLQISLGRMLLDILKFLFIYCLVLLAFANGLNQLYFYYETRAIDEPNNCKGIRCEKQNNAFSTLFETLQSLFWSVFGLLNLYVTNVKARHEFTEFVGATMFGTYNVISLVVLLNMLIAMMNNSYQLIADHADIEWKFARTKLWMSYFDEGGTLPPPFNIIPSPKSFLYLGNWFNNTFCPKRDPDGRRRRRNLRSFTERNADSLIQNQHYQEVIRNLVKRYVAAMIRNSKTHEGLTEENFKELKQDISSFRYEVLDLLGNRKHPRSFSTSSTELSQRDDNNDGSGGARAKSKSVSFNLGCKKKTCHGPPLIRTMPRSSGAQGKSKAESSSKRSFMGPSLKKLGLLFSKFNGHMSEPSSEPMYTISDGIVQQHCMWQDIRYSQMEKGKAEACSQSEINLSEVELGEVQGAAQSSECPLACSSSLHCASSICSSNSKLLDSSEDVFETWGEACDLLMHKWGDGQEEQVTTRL
T1 sequence (P48995 whole entry partner): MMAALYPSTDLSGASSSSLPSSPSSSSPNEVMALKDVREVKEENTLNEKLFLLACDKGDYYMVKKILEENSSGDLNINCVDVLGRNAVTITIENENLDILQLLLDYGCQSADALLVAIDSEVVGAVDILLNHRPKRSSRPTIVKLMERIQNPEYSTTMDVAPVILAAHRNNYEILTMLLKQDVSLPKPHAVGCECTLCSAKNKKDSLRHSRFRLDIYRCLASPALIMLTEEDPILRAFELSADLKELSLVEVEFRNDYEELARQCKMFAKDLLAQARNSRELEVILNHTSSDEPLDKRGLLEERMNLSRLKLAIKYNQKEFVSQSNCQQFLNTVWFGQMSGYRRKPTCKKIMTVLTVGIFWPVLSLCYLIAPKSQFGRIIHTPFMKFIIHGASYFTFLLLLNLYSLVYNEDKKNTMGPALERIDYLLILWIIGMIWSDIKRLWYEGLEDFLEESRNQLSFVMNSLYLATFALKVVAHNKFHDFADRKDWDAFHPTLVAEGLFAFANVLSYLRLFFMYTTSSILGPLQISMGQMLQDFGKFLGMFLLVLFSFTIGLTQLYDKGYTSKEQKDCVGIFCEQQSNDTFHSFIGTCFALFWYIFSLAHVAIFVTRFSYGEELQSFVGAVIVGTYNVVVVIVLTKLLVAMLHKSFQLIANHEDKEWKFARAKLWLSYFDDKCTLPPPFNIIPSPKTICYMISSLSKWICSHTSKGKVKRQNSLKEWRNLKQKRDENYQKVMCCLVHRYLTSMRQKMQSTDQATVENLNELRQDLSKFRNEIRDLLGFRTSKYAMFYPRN

SMILES | EC50 [1] | Activation of heteromeric TRPC1:TRPC5 [2] | Stability in DTT-containing buffers [3]
Cn1c(=O)n(CCCO)c(=O)c2c1nc(Oc1ccc(Cl)c(OC(F)(F)F)c1)n2Cc1ccc(Cl)cc1 [AM237, reference compound] | 20 nM | does not activate | 
Cn1c(=O)n(CCCO)c(=O)c2c1nc(Oc1ccc(N=Nc3ccccc3)c(Cl)c1)n2Cc1ccc(Cl)cc1 [AzHC] |  |  | degrades
